These results are taken from patent US11780823B2, “Indazole-3-carboxamides and their use as Wnt/β-catenin signaling pathway inhibitors” (BioSplice Therapeutics, Inc., priority 2011, dated 2023).

The assay relates to Wnt activity (wnt-responsive SP5 promoter luciferase reporter in SW480 cells). The experiment in a line: Wnt reporter screening assay: SP5 promoter-driven firefly luciferase in SW480 cells. In kind it is cell-based. The note with it: Homo sapiens; SW480 colon cancer cells with SP5 promoter luciferase reporter; half-log dilutions, ten micromolar top concentration; read 24-40 h after compound addition; normalized to DMSO; read-out: Wnt inhibition. Summed up:
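Described as a possible protocol: SW480 cells (APC-mutant colon cancer) stably carrying an SP5 promoter (eight TCF/LEF sites) firefly luciferase reporter, ~10,000 per well. BrightGlo luminescence normalized to DMSO wells for IC50.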
On the technique in general: Reporter assays use an easily measured gene product as a stand-in for the process of interest.

In the case of `O=C(Nc1ccc(N2CCC(O)CC2)nc1)c1n[nH]c2ccc(-c3cncc(CN4CCCCC4)c3)cc12` [Compound 169, N-(6-(4-Hydroxypiperidin-1-yl)pyridin-3-yl)-5-(5-(piperidin-1-ylmethyl)pyridin-3-yl)-1H-indazole-3-carboxamide], the IC50 came to 49 nM.
